Data taken from PubChem BioAssay (NCI).
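In this assay, cells in 96-well plates receive the compound at five concentrations for 48 hours. Endpoints are linearly interpolated between the surrounding concentrations. Definition used: TGI = concentration required for complete inhibition of growth.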

How the values were obtained:
Test in all cases: NCI anticancer screen, dose series, 48 h
RXF 393 renal = system: RXF 393 renal
OVCAR-8 ovarian = system: OVCAR-8 ovarian
NCI-H226 lung = system: NCI-H226 lung
BT-549 breast = system: BT-549 breast
COLO 205 colon = system: COLO 205 colon
K-562 leukemia = system: K-562 leukemia
NCI-H522 lung = system: NCI-H522 lung
HOP-92 NSCLC = system: HOP-92 NSCLC
MDA-MB-231 breast = system: MDA-MB-231 breast
IGROV1 ovarian = system: IGROV1 ovarian
SK-MEL-2 melanoma = system: SK-MEL-2 melanoma
ACHN renal = system: ACHN renal
EKVX NSCLC = system: EKVX NSCLC
SNB-19 CNS = system: SNB-19 CNS
SK-OV-3 ovarian = system: SK-OV-3 ovarian
CAKI-1 renal = system: CAKI-1 renal
DU-145 prostate = system: DU-145 prostate
MALME-3M melanoma = system: MALME-3M melanoma
LOX IMVI melanoma = system: LOX IMVI melanoma
SN12C renal = system: SN12C renal
HT29 colon = system: HT29 colon
HCC-2998 colon = system: HCC-2998 colon
786-0 renal = system: 786-0 renal
MDA-N = system: MDA-N
UACC-257 melanoma = system: UACC-257 melanoma
OVCAR-3 ovarian = system: OVCAR-3 ovarian
HOP-62 NSCLC = system: HOP-62 NSCLC
MCF7 breast = system: MCF7 breast
T-47D breast = system: T-47D breast
A498 renal = system: A498 renal
MOLT-4 leukemia = system: MOLT-4 leukemia
TK-10 renal = system: TK-10 renal
SF-268 CNS = system: SF-268 CNS
OVCAR-5 ovarian = system: OVCAR-5 ovarian
UACC-62 melanoma = system: UACC-62 melanoma
SF-295 CNS = system: SF-295 CNS
U251 CNS = system: U251 CNS
RPMI-8226 leukemia = system: RPMI-8226 leukemia
M14 melanoma = system: M14 melanoma
HCT-116 colon = system: HCT-116 colon
HS 578T breast = system: HS 578T breast
OVCAR-4 ovarian = system: OVCAR-4 ovarian
NCI/ADR-RES ovarian = system: NCI/ADR-RES ovarian
NCI-H460 lung = system: NCI-H460 lung
SF-539 CNS = system: SF-539 CNS
UO-31 renal = system: UO-31 renal
PC-3 prostate = system: PC-3 prostate
KM12 colon = system: KM12 colon
A549 NSCLC = system: A549 NSCLC
MDA-MB-435 = system: MDA-MB-435
HCT-15 colon = system: HCT-15 colon
SK-MEL-5 melanoma = system: SK-MEL-5 melanoma
SNB-75 CNS = system: SNB-75 CNS
NCI-H23 lung = system: NCI-H23 lung
CCRF-CEM leukemia = system: CCRF-CEM leukemia
SW-620 colon = system: SW-620 colon
SK-MEL-28 melanoma = system: SK-MEL-28 melanoma

Cc1c2c(OCC3CCCCO3)nn(C)c(=O)c2c(C)n1-c1ccccc1 (stereo unspecified)
TGI (RXF 393 renal): 34.3 µM
TGI (OVCAR-8 ovarian): 42.2 µM
TGI (NCI-H226 lung): 42.7 µM
TGI (BT-549 breast): 38.2 µM
TGI (COLO 205 colon): 33.3 µM
TGI (K-562 leukemia): > 100 µM
TGI (NCI-H522 lung): 34.9 µM
TGI (HOP-92 NSCLC): 33.1 µM
TGI (MDA-MB-231 breast): 32.2 µM
TGI (IGROV1 ovarian): 37.8 µM
TGI (SK-MEL-2 melanoma): 39.4 µM
TGI (ACHN renal): 31.1 µM
TGI (EKVX NSCLC): 33.2 µM
TGI (SNB-19 CNS): 46.8 µM
TGI (SK-OV-3 ovarian): 34.8 µM
TGI (CAKI-1 renal): 59 µM
TGI (DU-145 prostate): 36.9 µM
TGI (MALME-3M melanoma): 33.1 µM
TGI (LOX IMVI melanoma): 33.7 µM
TGI (SN12C renal): 40.6 µM
TGI (HT29 colon): 91.4 µM
TGI (HCC-2998 colon): 29.4 µM
TGI (786-0 renal): 33.9 µM
TGI (MDA-N): 35.8 µM
TGI (UACC-257 melanoma): 34.9 µM
TGI (OVCAR-3 ovarian): 33.3 µM
TGI (HOP-62 NSCLC): 38 µM
TGI (MCF7 breast): 30.3 µM
TGI (T-47D breast): 70.3 µM
TGI (A498 renal): 28.3 µM
TGI (MOLT-4 leukemia): > 100 µM
TGI (TK-10 renal): 45.4 µM
TGI (SF-268 CNS): 30.7 µM
TGI (OVCAR-5 ovarian): 35.9 µM
TGI (UACC-62 melanoma): 31 µM
TGI (SF-295 CNS): 31.4 µM
TGI (U251 CNS): 31.2 µM
TGI (RPMI-8226 leukemia): > 100 µM
TGI (M14 melanoma): 34.9 µM
TGI (HCT-116 colon): 31.6 µM
TGI (HS 578T breast): 46.6 µM
TGI (OVCAR-4 ovarian): 32.8 µM
TGI (NCI/ADR-RES ovarian): 50.7 µM
TGI (NCI-H460 lung): 30.9 µM
TGI (SF-539 CNS): 37.2 µM
TGI (UO-31 renal): 31.2 µM
TGI (PC-3 prostate): 36 µM
TGI (KM12 colon): 40.4 µM
TGI (A549 NSCLC): 33.7 µM
TGI (MDA-MB-435): 37.4 µM
TGI (HCT-15 colon): 33.4 µM
TGI (SK-MEL-5 melanoma): 29.1 µM
TGI (SNB-75 CNS): 32 µM
TGI (NCI-H23 lung): 44.2 µM

C\C(=N/N=C1/C(=C\N(C)C)C(=O)NC(=O)N1C)c1ccc(Cl)cc1
TGI (RXF 393 renal): > 100 µM
TGI (OVCAR-8 ovarian): > 100 µM
TGI (NCI-H226 lung): > 100 µM
TGI (BT-549 breast): > 100 µM
TGI (CCRF-CEM leukemia): > 100 µM
TGI (COLO 205 colon): > 100 µM
TGI (K-562 leukemia): > 100 µM
TGI (NCI-H522 lung): > 100 µM
TGI (HOP-92 NSCLC): > 100 µM
TGI (MDA-MB-231 breast): > 100 µM
TGI (IGROV1 ovarian): > 100 µM
TGI (SK-MEL-2 melanoma): > 100 µM
TGI (SW-620 colon): > 100 µM
TGI (ACHN renal): > 100 µM
TGI (EKVX NSCLC): > 100 µM
TGI (SNB-19 CNS): > 100 µM
TGI (SK-OV-3 ovarian): > 100 µM
TGI (CAKI-1 renal): > 100 µM
TGI (DU-145 prostate): > 100 µM
TGI (MALME-3M melanoma): > 100 µM
TGI (LOX IMVI melanoma): > 100 µM
TGI (SN12C renal): > 100 µM
TGI (HT29 colon): > 100 µM
TGI (HCC-2998 colon): > 100 µM
TGI (786-0 renal): > 100 µM
TGI (MDA-N): > 100 µM
TGI (UACC-257 melanoma): > 100 µM
TGI (OVCAR-3 ovarian): > 100 µM
TGI (HOP-62 NSCLC): > 100 µM
TGI (MCF7 breast): > 100 µM
TGI (SK-MEL-28 melanoma): > 100 µM
TGI (T-47D breast): > 100 µM
TGI (A498 renal): > 100 µM
TGI (MOLT-4 leukemia): > 100 µM
TGI (TK-10 renal): > 100 µM
TGI (SF-268 CNS): > 100 µM
TGI (OVCAR-5 ovarian): > 100 µM
TGI (UACC-62 melanoma): > 100 µM
TGI (SF-295 CNS): > 100 µM
TGI (U251 CNS): > 100 µM
TGI (RPMI-8226 leukemia): > 100 µM
TGI (M14 melanoma): > 100 µM
TGI (HCT-116 colon): > 100 µM
TGI (HS 578T breast): > 100 µM
TGI (OVCAR-4 ovarian): > 100 µM
TGI (NCI/ADR-RES ovarian): > 100 µM
TGI (NCI-H460 lung): > 100 µM
TGI (SF-539 CNS): > 100 µM
TGI (UO-31 renal): > 100 µM
TGI (PC-3 prostate): > 100 µM
TGI (KM12 colon): > 100 µM
TGI (A549 NSCLC): > 100 µM
TGI (MDA-MB-435): > 100 µM
TGI (HCT-15 colon): > 100 µM
TGI (SK-MEL-5 melanoma): > 100 µM
TGI (SNB-75 CNS): > 100 µM
TGI (NCI-H23 lung): > 100 µM
